Data as given in patent publication US9272038B2, “Wound care formulation” (Innovation Ulster Limited, priority 2007, dated 2016).
Where a name gives a salt, the structure may show the parent alone.

How the values were obtained:
Format in all cases: physicochemical
[1] = pH measurement of PVA-borate hydrogels (spear-tip electrode); conditions: 10% w/w PVA and 2.5% w/w borax hydrogel, n=4
Protocol: PVA-borate hydrogels (10% w/w PVA and 2.5% w/w borax) were prepared by combining equal volumes of separate stock solutions (20% w/w PVA and 5% w/w borax) prepared in de-ionised water. A homogenous gel was formed upon heating the mixture to 80° C. for approximately two hours, with periodic stirring. Gels were stored for 48 hours at room temperature to allow complete gelation prior to evaluation. Excipients, such as lidocaine HCL and D-mannitol, were added to the sodium tetraborate solution prior to addition to the PVA solution. The pH of gel formulations were recorded using a Sensorex® spear-tip electrode ([…], Sensys Ltd, Stevenage), which is designed to penetrate and measure the pH of semi-solid systems. Measurements of pH in borax solutions (5% w/v), following successive additions of D-mannitol (5.0×10^-3 mole), were recorded using the same electrode apparatus. Additionally, the effect of the polyols on the concentration of free borate ions within the hydrogel was estimated using changes in the pH of the gel after addition of a defined polyol. Standard hydrogels of 10% w/w PVA and 2.5% borax were produced containing each polyol at a concentration of 0.1 Molar. The pH of each gel was measured upon equilibration, with each measurement performed for four samples (n=4). Similarly, the changes in gel hardness arising from variations in free borate induced by polyol addition were determined using texture profile analysis, as described above. As before, four replicate measurements were made in each case at ambient temperature (n=4).

[2] = Texture profile analysis (hardness) of PVA-borate hydrogels; conditions: for Hardness (N): 10% w/w PVA and 2.5% w/w borax hydrogel with 0.1 M polyol, n=4; for effect on hardness compared to the hydrogel containing no polyol: hydrogel loaded with 0.1 Molar polyol
Protocol: Evaluation of the mechanical properties of PVA-borate hydrogels was performed using a TA-XT2 Texture Analyzer (Stable Micro Systems, […], UK) in texture profile analysis (TPA) mode. Formulations were placed in poly(propylene) containers (44 mm diameter×55 mm depth) (Sarstedt©, Wexford, Republic of Ireland) with any air bubbles in the gels removed upon standing at ambient temperature (>6.0 h) prior to investigation. The tubular probe (10.0 mm in diameter and 150.0 mm in length) was compressed twice into each sample to a depth of 15.0 mm at a rate of 10.0 mm s^-1, with a 15.0 s delay between compressions. Four replicate measurements were made in each case at ambient temperature. Hardness and compressibility, which have previously been used to define the mechanical properties of hydrogels were derived from the force-time plots produced by the TPA analysis^30. Those skilled in the art of TPA, will be familiar with production of said force-time plots and derivation of hardness and compressibility data from aforementioned data. Hardness, the force required to achieve a given deformation, was determined by the force maximum of the first positive curve of the force-time plot^30. Compressibility, the work required to deform the product during the first compression of the probe was determined by the area under the first positive curve of the force-time plot^30. Additionally, the effect of the polyols on the concentration of free borate ions within the hydrogel was estimated using changes in the pH of the gel after addition of a defined polyol. Standard hydrogels of 10% w/w PVA and 2.5% borax were produced containing each polyol at a concentration of 0.1 Molar. The pH of each gel was measured upon equilibration, with each measurement performed for four samples (n=4). Similarly, the changes in gel hardness arising from variations in free borate induced by polyol addition were determined using texture profile analysis, as described above. As before, four replicate measurements were made in each case at ambient temperature (n=4).

[3] = Comparison of polyol affinity for borate ions by direct titrimetry; conditions: polyol added to 100.0 ml of 5% w/v Borax solution; calculated from pH with Equation 3
Protocol: The following polyols were used in this investigation; maltitol, dulcitol, D-mannitol, D-sorbitol, xylitol, meso-erythritol, 1,2-propanediol, glycerol. Additionally, the affect of propan-2-ol was also investigated. The affinity of each polyol for borate was estimated using direct titrimetry and by analysis of gel characteristics. In the former method, incremental additions (1.0 ml) of a 0.5 M solution of polyol was added to 100.0 ml of 5% w/v Borax solution and the pH recorded. […] 3; 10^(pH-pKa)[H3BO3]0═[B(OH)4^−]f (3) where, [H3BO3]0 is the concentration of boric acid, [B(OH)4^−]f is the concentration of free borate ions and pKa is the pKa of boric acid (derived from the initial pH of the 5% w/v borax solution). […] These assumptions are consistent with work of other researchers^27,28.

[4] = pHp of lidocaine hydrochloride within PVA-Borate hydrogels, derived experimentally
Protocol: […]. The determination of the pHp in the aqueous environment is determined using the equation (1), whilst the determination of the pHp within the gel environment is derived experimentally. […].

| Molecule | pH of hydrogel with 0.1 M polyol [1] | Hardness (N) [2] [N] | % reduction in free borate/0.0005 moles [3] [%] | effect on hardness compared to the hydrogel containing no polyol [2] | pHp (Gel) ([4]; 1% w/v lidocaine HCl in PVA-Borate hydrogel) | pHp (Gel) ([4]; 2% w/v lidocaine HCl in PVA-Borate hydrogel) | pHp (Gel) ([4]; 3% w/v lidocaine HCl in PVA-Borate hydrogel) | pHp (Gel) ([4]; 4% w/v lidocaine HCl in PVA-Borate hydrogel, hydrochloride) | pHp (Gel) ([4]; 4% w/v lidocaine HCl in PVA-Borate hydrogel, listed as lidocaine hydrochloride monohydrate, hydrochloride) |
| --- | --- | --- | --- | --- | --- | --- | --- | --- | --- |
| Malititol | 7.63 ± 0.019 | 2.79 ± 0.14 | 7.25 ± 1.59 |  |  |  |  |  |  |
| CC(C)O [Propan-2-ol] | 8.393 +/− 0.012 |  | 0.51 ± 1.09 | no affect on the hardness of the hydrogel |  |  |  |  |  |
| CCN(CC)CC(=O)Nc1c(C)cccc1C [Lidocaine HCl, lidocaine hydrochloride] |  |  |  |  | ≧8.15 | ≧7.75 | ≧7.45 | ≧7.26 | > 7.26 |
| OC[C@@H](O)[C@@H](O)[C@H](O)[C@H](O)CO [D-mannitol] | 7.74 ± 0.023 | 4.07 ± 0.25 | 7.47 ± 1.10 |  |  |  |  |  |  |
| OC[C@@H](O)[C@@H](O)[C@H](O)[C@@H](O)CO [D-sorbitol] | 7.79 ± 0.02 | 4.37 ± 0.31 | 6.87 ± 1.25 |  |  |  |  |  |  |
| OC[C@@H](O)[C@H](O)[C@@H](O)CO [Xylitol] | 7.95 ± 0.038 | 5.18 ± 0.31 | 4.97 ± 1.21 |  |  |  |  |  |  |
| OC[C@@H](O)[C@H](O)[C@H](O)[C@@H](O)CO [Dulitol] | 7.67 ± 0.015 | 3.87 ± 0.38 | 7.46 ± 1.41 |  |  |  |  |  |  |
| OC[C@@H](O)[C@@H](O)CO [Meso-erythritol] | 8.10 ± 0.01 | 9.01 ± 0.45 | 4.97 ± 1.17 |  |  |  |  |  |  |
| OCC(O)CO [Glycerol] | 8.17 +/− 0.022 |  | 3.36 ± 1.34 |  |  |  |  |  |  |
| CC(O)CO (centres unmarked) [1,2-propandiol] | 8.39 ± 0.02 | 14.10 ± 0.5 | 2.08 ± 0.78 | no affect on the hardness of the hydrogel |  |  |  |  |  |
